Legend:
Q9E-MiRP1 channels = Q9E-MiRP1 channels (Homo sapiens, UniProt Q12809+Q9Y6J6, Q9E); settings: Abbott et al. (1999); cited from earlier work
[1] = target: wild type MiRP1/HERG channels (Homo sapiens, UniProt Q12809); test: cell-based; settings: Ki (equilibrium inhibition constant), wild type MiRP1
[2] = target: wild type MiRP1/HERG channels (Homo sapiens, UniProt Q12809+Q9Y6J6); test: cell-based
I57T-MiRP1/HERG channels = I57T-MiRP1/HERG channels (Homo sapiens, UniProt Q12809); test: cell-based
I57T-MiRP1/HERG channels, sequence (Q12809 whole entry): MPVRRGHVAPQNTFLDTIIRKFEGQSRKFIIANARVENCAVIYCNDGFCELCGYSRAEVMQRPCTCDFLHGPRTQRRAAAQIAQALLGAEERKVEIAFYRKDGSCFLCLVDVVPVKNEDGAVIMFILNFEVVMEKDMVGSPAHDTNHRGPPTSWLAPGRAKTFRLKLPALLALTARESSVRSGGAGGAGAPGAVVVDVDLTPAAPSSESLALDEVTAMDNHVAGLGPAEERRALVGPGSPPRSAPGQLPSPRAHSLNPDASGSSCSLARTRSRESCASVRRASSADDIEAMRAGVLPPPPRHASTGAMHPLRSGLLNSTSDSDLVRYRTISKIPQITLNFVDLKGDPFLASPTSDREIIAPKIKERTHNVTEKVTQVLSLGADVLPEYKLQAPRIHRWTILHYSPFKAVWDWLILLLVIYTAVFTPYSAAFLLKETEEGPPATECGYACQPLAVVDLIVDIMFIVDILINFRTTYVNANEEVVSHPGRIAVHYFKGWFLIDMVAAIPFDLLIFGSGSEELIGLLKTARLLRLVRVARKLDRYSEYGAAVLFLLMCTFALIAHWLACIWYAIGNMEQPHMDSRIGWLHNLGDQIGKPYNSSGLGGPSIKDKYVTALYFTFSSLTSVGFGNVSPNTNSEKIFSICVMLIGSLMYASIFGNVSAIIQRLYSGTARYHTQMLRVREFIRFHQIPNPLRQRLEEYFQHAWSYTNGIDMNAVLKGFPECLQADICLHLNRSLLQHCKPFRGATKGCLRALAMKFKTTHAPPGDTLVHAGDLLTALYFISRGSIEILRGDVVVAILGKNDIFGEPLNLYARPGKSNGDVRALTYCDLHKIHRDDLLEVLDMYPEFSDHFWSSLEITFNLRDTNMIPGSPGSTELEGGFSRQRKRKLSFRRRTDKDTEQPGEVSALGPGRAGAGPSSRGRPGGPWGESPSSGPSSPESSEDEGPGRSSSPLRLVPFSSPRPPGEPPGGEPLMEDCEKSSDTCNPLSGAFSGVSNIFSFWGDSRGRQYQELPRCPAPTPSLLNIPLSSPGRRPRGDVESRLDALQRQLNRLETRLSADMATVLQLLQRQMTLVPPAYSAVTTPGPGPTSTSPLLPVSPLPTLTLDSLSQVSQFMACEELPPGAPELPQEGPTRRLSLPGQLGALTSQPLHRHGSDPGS
I57T-MiRP1/HERG channels, sequence (Q9Y6J6 whole entry I57T, further chain): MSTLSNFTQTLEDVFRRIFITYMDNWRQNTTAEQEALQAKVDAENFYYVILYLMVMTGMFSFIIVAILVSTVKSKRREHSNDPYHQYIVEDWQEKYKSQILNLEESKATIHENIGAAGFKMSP

wild type MiRP1/HERG channels (Homo sapiens, UniProt Q12809), sequence (Q12809 whole entry): as the sequence (Q12809 whole entry) above
wild type MiRP1/HERG channels (Homo sapiens, UniProt Q12809), sequence (Q9Y6J6 whole entry, further chain): as the sequence (Q9Y6J6 whole entry I57T, further chain) above, with T57I counted along it
wild type MiRP1/HERG channels (Homo sapiens, UniProt Q12809+Q9Y6J6), sequence (Q12809 whole entry): as the sequence (Q12809 whole entry) above
wild type MiRP1/HERG channels (Homo sapiens, UniProt Q12809+Q9Y6J6), sequence (Q9Y6J6 whole entry): as the sequence (Q9Y6J6 whole entry I57T, further chain) above, with T57I counted along it
Q9E-MiRP1 channels, sequence (Q9Y6J6 whole entry Q9E): as the sequence (Q9Y6J6 whole entry I57T, further chain) above, with Q9E, T57I counted along it
Q9E-MiRP1 channels, sequence (Q12809 whole entry): as the sequence (Q12809 whole entry) above

| SMILES | Sensitivity of Q9E-MiRP1 channels to drug inhibition relative to wild type (Q9E-MiRP1 channels) | Ki [1] | Level for half-maximal inhibition relative to plasma (therapeutic) levels in patients [2] | Ki (I57T-MiRP1/HERG channels) |
| --- | --- | --- | --- | --- |
| CC[C@H]1OC(=O)[C@H](C)[C@@H](O[C@H]2C[C@@](C)(OC)[C@@H](O)[C@H](C)O2)[C@H](C)[C@@H](O[C@@H]2O[C@H](C)C[C@H](N(C)C)[C@H]2O)[C@](C)(OC)C[C@@H](C)C(=O)[C@H](C)[C@@H](O)[C@]1(C)O [clarithromycin] | three-fold more sensitive |  |  |  |
| O=c1[nH]c2ccccc2n1CCCN1CCN(C(c2ccccc2)c2ccccc2)CC1 [oxatomide] |  | 0.422 µM | close to their therapeutic concentrations | 1.88 µM |
